Test results published in patent US12378294B2, “IL-4 derived peptides for use in the treatment of obesity” (SERODUS APS, priority 2022, dated 2025).
Where “and” joins values, the source holds several entries; their conditions need not be identical. Equal entries are not always repeated. Where no end group is shown, it is not given here.

Experiments:
[1] = test system: female mice (BKS.Cg-Dock7m+/+Leptin db/db BLKS); assay: Effect of an IL-4 derived peptide on body weight in db/db mice; format: in vivo; conditions: for Effect on weight / weight gain compared to vehicle: treatment group vs vehicle/placebo group, 77 days s.c. once daily
Description: 30 female mice (BKS.Cg-Dock7m+/+Leptin db/db BLKS, 5 weeks of age) were transferred to the Gubra Research animal unit in Denmark. Throughout the habituation and study period, the animals were housed in a light-, temperature-, and -humidity-controlled room with free access to food and water. All animal experiments were conducted in accordance with Gubra bioethical guidelines, which are fully compliant with internationally accepted principles for the care and use of laboratory animals. The body weight of the animals was recorded at the start of the study (baseline), on day 13, day 27, day 34, day 43, day 60 and day 77 (termination of study).
Compound A was prepared using standard solid phase peptide synthesis (SPPS) procedures. Compound A was provided by Phlogo ApS, Copenhagen, Denmark (10 mg/ml miliQ water diluted to the dose formulations). Vehicle was miliQ:PBS 1:5.
The mice were randomized into a vehicle group (n=15) and a 10 mg/kg Compound A (n=15). The compound as well as the vehicle was administered subcutaneously once daily. On day 27, the dose was lowered to 5 mg/kg Compound A (n=15), and on day 43, the dose was lowered to 2.5 mg/kg Compound A (n=15).

type I IL-4R = biological target: T1, type I IL-4R (Homo sapiens, UniProt P24394); conditions: cited from earlier work
T1 sequence (P24394 26-825): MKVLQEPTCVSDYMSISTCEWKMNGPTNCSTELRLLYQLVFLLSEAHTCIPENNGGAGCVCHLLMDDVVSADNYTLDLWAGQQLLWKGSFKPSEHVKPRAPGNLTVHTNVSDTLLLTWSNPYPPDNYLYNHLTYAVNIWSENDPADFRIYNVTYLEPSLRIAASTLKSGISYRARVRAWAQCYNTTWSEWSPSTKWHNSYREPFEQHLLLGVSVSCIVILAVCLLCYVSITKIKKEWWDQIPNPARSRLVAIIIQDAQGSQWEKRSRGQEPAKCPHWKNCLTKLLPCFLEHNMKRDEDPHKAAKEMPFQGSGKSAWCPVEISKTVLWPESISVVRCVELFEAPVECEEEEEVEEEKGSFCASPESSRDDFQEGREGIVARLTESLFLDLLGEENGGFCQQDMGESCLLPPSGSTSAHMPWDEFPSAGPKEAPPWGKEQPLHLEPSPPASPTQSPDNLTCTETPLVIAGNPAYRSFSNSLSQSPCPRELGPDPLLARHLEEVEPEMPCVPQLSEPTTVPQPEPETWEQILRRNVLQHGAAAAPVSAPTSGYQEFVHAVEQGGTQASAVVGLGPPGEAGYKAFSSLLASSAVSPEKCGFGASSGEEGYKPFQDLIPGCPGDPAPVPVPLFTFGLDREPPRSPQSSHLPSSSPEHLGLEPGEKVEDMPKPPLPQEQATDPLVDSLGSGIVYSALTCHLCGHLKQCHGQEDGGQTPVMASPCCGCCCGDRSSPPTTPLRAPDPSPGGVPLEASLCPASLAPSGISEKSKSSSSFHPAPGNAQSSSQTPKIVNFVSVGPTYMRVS

type II IL-4R = biological target: T2, type II IL-4R (Homo sapiens, UniProt P24394); conditions: cited from earlier work
T2 sequence (P24394 26-825): T1 sequence (P24394 26-825)

macrophages = conditions: cited from earlier work
IL-4 receptors = biological target: T3, IL-4 receptors (Homo sapiens, UniProt P24394); conditions: cited from earlier work
T3 sequence (P24394 26-825): T1 sequence (P24394 26-825)

Row | Substance | Δ Weight ([1]; individual animals 1-15 of treatment group, day 77 minus baseline, s.c. once daily, 10 then 5 then 2.5 mg/kg) | Weight at day 77 ([1]; individual animals 1-15 of treatment group, s.c. once daily, 10 mg/kg, lowered to 5 mg/kg on day 27 and 2.5 mg/kg on day 43, day 77) | Δ Weight (g), mean ([1]; mean of treatment group (n=15), baseline to day 77, s.c. once daily, 10 then 5 then 2.5 mg/kg, placebo mean 5.76) [g] | Weight at day 77 (g), mean ([1]; mean of treatment group (n=15), s.c. once daily, 10 then 5 then 2.5 mg/kg, placebo mean 50.64) [g] | Weight increase during the study period ([1]; treatment group average, baseline to day 77, placebo 12.8%) [%] | Effect on weight / weight gain compared to vehicle [1] | Effect on weight / weight gain compared to vehicle ([1]; listed as compound A) | Activity on type I IL-4R (type I IL-4R) | Activity on type II IL-4R (type II IL-4R) | Macrophage activation (macrophages) | Binding to the IL-4 receptors (IL-4 receptors)
1 | Compound A: dimer of SEQ ID NO:1 (AQFHRHKQLIRFLKRA) connected through a linker (lysine-beta-alanine) at the C-terminals (also: dimer of two chains joined at the C-termini through a Lys-βAla linker) | 1.80 g and -1.60 g and 7.30 g and 4.40 g and 4.50 g and 2.70 g and -1.90 g and 8.00 g and 4.20 g and 11.20 g and 11.40 g and 3.20 g and -1.30 g and 0.90 g and 1.40 g | 54.30 g (2×) and 47.30 g and 48.40 g and 52.50 g and 59.10 g and 47.60 g and 37.50 g and 57.30 g and 51.80 g and 58.10 g and 59.40 g and 52.40 g and 49.20 g and 49.40 g | 3.51 | 48.66 | 7.8 | significantly decreased the weight | decreased the weight gain |  |  |  | 
2 | AQFHRHKQLIRFLKRA [SEQ ID NO:1, 16-residue IL-4 derived peptide, variant of AA71-AA86 of IL-4] |  |  |  |  |  |  |  | high affinity partial agonist | antagonist | inhibiting macrophage activation | capable of binding to the IL-4 receptors
